Results published in patent US5451411A, “Methods and compositions for the oral delivery of therapeutic agents” (University of Washington, priority 1993, dated 1995).

Legend:
[1] = Encapsulation efficiency of 125I-TGF-β1 in alginate beads; format: physicochemical
Method: Radioiodination of TGF-β1 : Radioiodination of TGF-β1 was completed in a 3.0-mL Eppendorf tube using a modified chloramine-T method (A. Tuong et al., "Site Specific Radioiodination of Recombinant Himdin," Annal. Biochem. 189:186-191 (1990)). To TGF-β1 (1 mg/1 mL) in 5 mMHCl, 10 μL of carrier-free Na^125 I (1.0 mCi) was added and mixed for 5 minutes. 100 μL of 0.1% chloramine-T was then added and, after vortexing for 60 seconds, the reaction was stopped by the addition of 100 μL of aqueous 0.1% mercaptoethanol followed by 100 μL of […]. ^125 I-TGF-β1 was diluted by adding 1.2 mL of citrate phosphate buffer (CPB), pH 2.6.
Free ^125 I was separated from ^125 I-TGF-β1 by gel filtration on a prepacked Sephadex G-25 column from Pharmacia (Uppsala, Sweden) preequilibrated with CPB. Twenty fractions of 0.5 mL each were collected, and aliquots were counted for activity using a γ-scintillation counter (Model 1185 GammaTrac; Tm Analytic; Elk Grove Village, IL). Separated ^125 I-TGF-β1 (S.A.=0.72 nCi/ng or 187 ng/μL was stored at 4° C. in 1.5 mL-Eppendofftubes. […]
Formation of Beads: 1.5 mL of the prebead mixture was drawn into a syringe equipped with a 30 G needle. […] If ^125 I-TGF-β1 was incorporated in the beads, calcium chloride was retained and counted for activity along with the 1.5 mL-Eppendoff tube to determine the % encapsulation of TGF-β1 in beads. […]

[2] = test system: mouse anti-TGF-β1 monoclonal antibody, 1D11; experiment: ELISA measured binding activity (immunoreactivity) of TGF-β1
Method: The ability of released TGF-β1 from both untreated and acid treated beads (as described above) to be recognized (bound) by a monoclonal antibody was assayed by ELISA as follows. An enzyme linked immunosorbent assay (ELISA) was used to quantitate the amount of immunoreactive TGF-β1 released from the untreated (PBS) and acid treated (HCl) alginate beads. The ELISA was based on the ability of a mouse anti-TGF-β1 monoclonal antibody, 1D11 (Bristol-Myers Squibb, Seattle, WA), to bind to the TGF-β1 molecule. When the 1D11 antibody was coated on 96-well immunoassay plates it captured TGF-β1 from the applied sample and standard solutions. Captured TGF-β1 was then bound by biotinylated 1D11 antibody which in turn was bound by a horseradish peroxidase/avidin D conjugate (Vector Labs cat #A-2004). A color reaction occurred by adding a chromophore/substrate solution of 3,3',5,5'-tetramethylbenzidine in CPB containing hydrogen peroxide. The reaction was stopped with the addition of 1 N sulfuric acid and the A450 was determined by a plate reader. Concentrations of the unknown samples were quantified relative to a TGF-β1 standard curve run on the same plate.
The immunoreactivity of TGF-β1 in solution in the presence of anionic amino acids, polyanions and polycations was studied using the ELISA procedure described in Example 2. To 1 mg/mL solutions of TGF-β1 in 5 mM HCl was added from 0 to 0.14%(w/v) of glutamic acid, aspartic acid, poly-L-aspartic acid (PLAA, Mw=13 kDa), sodium carboxymethyl cellulose (Na CMC, high viscosity), or polyacrylic acid (PAA, 2, 90 or 750 kDa). The reactivity of the TGF-β1 was then determined by the ELISA procedure, as described in Example 2.
Next, the ability of the additives to […] was investigated. Alginate solutions were prepared in accordance with the procedure of Example 1, incorporating 50 μg of TGF-β1, 0-0.15% (w/v) of sodium alginate and 0.1-1.0 mg (up to 0.125% w/v) of PAA (750 kDa), PLAA (13 kDa), NaCMC high viscosity or glutamic acid. The immunoreactivity of TGF-β1 was determined by ELISA as described in Example 2.
Alginate beads were prepared according to the procedure of Example 1 incorporating 50 μg TGF-β1 and 0.1-1.0 mg of additives. […] In addition, Poly-L-Lysine (PLL;123 kDa) was incorporated as a potential polycationic competitor. The additives were incorporated at an alginate:additive w/w ratio of from 75:10 to 75:1 as indicated below in Table 3.
To further assess the effect of amount of PAA incorporation on immunoreactivity of released TGF-β1, alginate beads were prepared by incubating TGF-β1 and PAA (90 kDa) for either 5 or 60 minutes (see FIG. 7) in w/w ratios of 75:1, 75:6 and 75:10, followed by dilution, addition of alginate, and bead formation in 1% CaCl2. The beads were acid treated in 0.1 N HCl at 37° C. for 30 minutes and then incubated at 37° C. in PBS, pH 7.4.

Effect of hydrolysis time on ELISA measured binding activity of TGF-β1 ([2]; 0.1 N HCl, 37° C., 0.25-24 hr): no significant differences
TGF-β1 released and immunoreactive (ELISA) ([2]; acid treated beads 75:10 w/w PAA 90 kDa, PBS pH 7.4): over 80%
% Binding Activity of released TGF-β1, HCl ([2]; alginate beads acid treated in 0.1 N HCl, no additive): 14%
% Binding Activity of released TGF-β1, PBS ([2]; alginate beads not acid treated (PBS), no additive): 0%
ELISA binding activity of TGF-β1 released from beads alone, in words ([2]; beads without PAA): no binding activity
Immunoreactivity of TGF-β1, in words ([2]; released from calcium-alginate beads, in presence of alginate alone, or in presence of PAA (750 kDa)): little immunoreactivity
Immunoreactivity of TGF-β1 with alginate, in words ([2]; solution, 0.015% alginate, no additive): no immunoreactivity
% Active TGF-β1, 0% alginate ([2]; solution, % Alginate (w/v) 0): 100%
% Active TGF-β1, 0.0015% alginate ([2]; solution, % Alginate (w/v) 0.0015): 65%
% Active TGF-β1, 0.015% alginate ([2]; solution, % Alginate (w/v) 0.015): 0%
% Active TGF-β1, 0.15% alginate ([2]; solution, % Alginate (w/v) 0.15): 0%
Substance: TGF-β1: TGF-β1 (1 mg/mL in 5 mM HCl) obtained from Bristol-Myers Squibb (Seattle, WA)
Encapsulation efficiency of TGF-β1 in alginate beads ([1]; prebead mixtures made in polypropylene tubes, most preparations): greater than 97.5%
Loss of TGF-β1 ([1]; use of glass vials): more than 98%
